{"source": "patent US20100323894A1", "about": "“HERBICIDAL COMBINATION” (Bayer CropScience AG, priority 2007, published 2010)", "key": {"Polygonum convolvulus": {"tested_on": "Polygonum convolvulus", "test": "Post-emergence action against weeds, greenhouse, visual scoring", "assay_type": "in vivo", "conditions": "scoring 11 days after application", "description": "(§1) Seeds or rhizome pieces of monocotyledonous and dicotyledonous weeds were placed in sandy loam soil in plastic pots, covered with soil and cultivated in a greenhouse under good growth conditions. Three weeks after sowing, the test plants were treated at the 2- to 4-leaf stage. The compounds according to the invention, formulated as wettable powders or as emulsion concentrates, were sprayed onto the green parts of the plants in various dosages at a water application rate of 100 to 800 l/ha (converted). After the test plants had been left to stand in the greenhouse for 10 to 28 days under optimum growth conditions, the effect of the preparations was scored visually in comparison to untreated controls.\n0%=no control 100%=complete control"}, "Galium aparine": {"tested_on": "Galium aparine", "test": "Post-emergence action against weeds, greenhouse, visual scoring", "assay_type": "in vivo", "conditions": "scoring 11 days after application, 0=no control, 100=complete control", "description": "as §1\n0=no control 100=complete control"}}, "data": [{"compound": "CCN(C(=O)n1nnn(-c2ccccc2Cl)c1=O)C1CCCCC1", "note": "[Compound B8-1, fentrazamide]", "values": [{"measurement": "Polygonum convolvulus Control in %", "setting": "Polygonum convolvulus; 250 g of ai/ha, 0%=no control, 100%=complete control", "value": 20, "unit": "%"}]}, {"compound": "COCc1cnc(C2=NC(C)(C(C)C)C(=O)N2)c(C(=O)O)c1", "note": "(centres unmarked) [Compound B4-2, imazamox]", "values": [{"measurement": "Galium aparine Control in %", "setting": "Galium aparine; 10 g of ai/ha", "value": 75, "unit": "%"}]}, {"compound": "CCOC(=O)COc1cc(-c2nn(C)c(OC(F)F)c2Cl)c(F)cc1Cl", "note": "[Compound B2-1, pyraflufen-ethyl]", "values": [{"measurement": "Galium aparine Control in %", "setting": "Galium aparine; 2 g of ai/ha", "value": 23, "unit": "%"}]}, {"compound": "Cc1nn(C)c(O)c1C(=O)c1ccc(C(F)(F)F)cc1S(C)(=O)=O", "note": "[Compound B1-6, pyrasulfotole]", "values": [{"measurement": "Polygonum convolvulus Control in %", "setting": "Polygonum convolvulus; 25 g of ai/ha, 0%=no control, 100%=complete control", "value": 20, "unit": "%"}]}, {"compound": "CCc1cc(C)cc(CC)c1-c1c(OC(=O)C(C)(C)C)n2n(c1=O)CCOCC2", "note": "[Compound B9-1, pinoxaden]", "values": [{"measurement": "Polygonum convolvulus Control in %", "setting": "Polygonum convolvulus; 15 g of ai/ha, 0=no control, 100=complete control", "value": 20, "unit": "%"}]}, {"compound": "sodium salt of 2-iodo-N-[(4-methoxy-6-methyl-1,3,5-triazin-2-yl)carbamoyl]benzenesulfonamide [Compound A-2]", "values": [{"measurement": "Polygonum convolvulus Control in %", "setting": "Polygonum convolvulus; 2.5 g of ai/ha, 0%=no control, 100%=complete control", "value": 10, "unit": "%"}, {"measurement": "Galium aparine Control in %", "setting": "Galium aparine; 2.5 g of ai/ha", "value": 0, "unit": "%"}]}, {"compound": "CS(=O)(=O)c1cc(C(F)(F)F)ccc1C(=O)c1cnoc1C1CC1", "note": "[Compound B3-3, isoxaflutole]", "values": [{"measurement": "Polygonum convolvulus Control in %", "setting": "Polygonum convolvulus; 50 g of ai/ha, 0=no control, 100=complete control", "value": 25, "unit": "%"}]}]}
